The text below walks through data of PubChem BioAssay AID1794809.

Results filed as inconclusive are left out.

By EC50 is commonly meant the concentration at which the effect is half-maximal.

The target of this assay is Sodium- and chloride-dependent glycine transporter 1 (Homo sapiens) (UniProt P48067). The experiment in a line: PubChem AID 1794809. Conditions: HEK-293 SLC6A9 OE, FLIPR membrane potential dye.
Chain of Sodium- and chloride-dependent glycine transporter 1 (Homo sapiens) (P48067 whole entry, looked up): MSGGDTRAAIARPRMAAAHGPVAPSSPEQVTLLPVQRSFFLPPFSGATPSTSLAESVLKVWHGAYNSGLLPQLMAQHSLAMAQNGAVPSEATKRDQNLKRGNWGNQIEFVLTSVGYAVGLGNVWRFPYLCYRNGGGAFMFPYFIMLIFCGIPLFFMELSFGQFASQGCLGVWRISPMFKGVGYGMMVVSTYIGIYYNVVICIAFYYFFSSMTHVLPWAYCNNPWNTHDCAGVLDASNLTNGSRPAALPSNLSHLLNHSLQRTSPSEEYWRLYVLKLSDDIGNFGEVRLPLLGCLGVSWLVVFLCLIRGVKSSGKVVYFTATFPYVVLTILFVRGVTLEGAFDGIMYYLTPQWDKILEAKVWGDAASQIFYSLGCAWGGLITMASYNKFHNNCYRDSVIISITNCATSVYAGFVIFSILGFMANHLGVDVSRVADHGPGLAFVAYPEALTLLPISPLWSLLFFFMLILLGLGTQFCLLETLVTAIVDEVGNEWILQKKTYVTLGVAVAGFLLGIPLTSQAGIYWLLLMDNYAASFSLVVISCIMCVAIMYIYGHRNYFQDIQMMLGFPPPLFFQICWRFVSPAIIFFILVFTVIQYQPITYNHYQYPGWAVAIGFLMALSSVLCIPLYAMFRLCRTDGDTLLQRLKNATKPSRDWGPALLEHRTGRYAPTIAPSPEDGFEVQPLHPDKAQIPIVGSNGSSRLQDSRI

`NCC(=O)O`: the EC50 was 106 µM.
